Drawing on US6756210B2, “Linoleic acid diol and glucuronide conjugate levels as diagnostic markers of disorders of abnormal regulation of cytochrome P450 metabolism of unsaturated fatty acids” (The Regents of the University of California, priority 2001, dated 2004), this text covers IC50 for 17 compounds.

For assay [1], the target named is T1, recombinant mouse sEH (MsEH) (Mus musculus, UniProt P34914).
T1 sequence (P34914 1-554): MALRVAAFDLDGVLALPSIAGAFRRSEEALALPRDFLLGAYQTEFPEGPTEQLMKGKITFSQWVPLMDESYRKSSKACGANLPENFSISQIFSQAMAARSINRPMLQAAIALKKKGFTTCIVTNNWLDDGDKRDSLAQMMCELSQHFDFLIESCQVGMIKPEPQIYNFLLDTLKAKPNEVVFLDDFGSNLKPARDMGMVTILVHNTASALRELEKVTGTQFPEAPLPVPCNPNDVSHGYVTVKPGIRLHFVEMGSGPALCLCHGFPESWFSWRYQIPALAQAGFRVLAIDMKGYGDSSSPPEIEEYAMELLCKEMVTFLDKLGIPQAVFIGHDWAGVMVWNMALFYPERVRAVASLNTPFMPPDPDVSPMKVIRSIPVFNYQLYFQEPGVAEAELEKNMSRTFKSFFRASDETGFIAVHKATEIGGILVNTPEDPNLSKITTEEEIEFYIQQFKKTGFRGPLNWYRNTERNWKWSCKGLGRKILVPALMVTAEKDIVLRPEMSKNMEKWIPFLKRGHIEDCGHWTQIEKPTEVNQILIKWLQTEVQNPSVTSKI
Briefly: Inhibition of recombinant mouse sEH (MsEH). It is filed as biochemical. The settings on record: MsEH 0.13 μM, read-out: Mouse sEH IC50.

The target in a further assay is T2, Human sEH (HsEH) (Homo sapiens, UniProt P34913).
T2 sequence (P34913 1-555): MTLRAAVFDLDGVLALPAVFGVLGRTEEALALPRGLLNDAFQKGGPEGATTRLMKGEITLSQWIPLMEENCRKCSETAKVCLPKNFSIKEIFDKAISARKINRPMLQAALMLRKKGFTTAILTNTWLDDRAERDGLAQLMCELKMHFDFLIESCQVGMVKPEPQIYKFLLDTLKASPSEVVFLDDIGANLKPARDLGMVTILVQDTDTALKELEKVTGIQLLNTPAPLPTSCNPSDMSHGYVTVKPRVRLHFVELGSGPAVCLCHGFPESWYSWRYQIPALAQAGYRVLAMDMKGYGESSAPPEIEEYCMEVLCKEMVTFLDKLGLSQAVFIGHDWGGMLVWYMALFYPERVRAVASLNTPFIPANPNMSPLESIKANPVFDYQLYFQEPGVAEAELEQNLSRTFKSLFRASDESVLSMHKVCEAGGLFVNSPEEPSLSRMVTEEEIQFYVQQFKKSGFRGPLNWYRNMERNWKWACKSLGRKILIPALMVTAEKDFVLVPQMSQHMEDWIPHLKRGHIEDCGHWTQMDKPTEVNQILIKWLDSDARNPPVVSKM
Briefly: Inhibition of recombinant human sEH (HsEH). It is filed as biochemical. The settings on record: HsEH 0.26 μM.

Each structure is given as a SMILES string. Read-outs that look alike come from different tables or passages of the source.

For orientation: IC50 means the concentration needed to halve the response being measured. With `CCCCCCCCNC(=O)NC(C)C` [compound 183], the IC50 in assay [1] (Table 1) was found to be 1060 ± 70 nM; at Human sEH (HsEH) (Table 1), 5900 ± 300 nM.
In the case of `COc1ccc(CCNC(=O)NC2CCCCC2)cc1OC` [compound 384], the IC50 was determined as 50 ± 10 nM in assay [1] (Table 1) and 1000 ± 200 nM on Human sEH (HsEH) (Table 1).
For `CCCCCCCCNC(=O)NC1CCC1` [compound 181] the same measures were 520 ± 20 nM and 1710 ± 230 nM.
As for `O=C(Nc1ccc(F)cc1)NC1CCCCC1` [compound 60], the half-inhibitory concentration (IC50) amounted to 780 ± 20 nM in assay [1] (Table 1) and 430 ± 20 nM at Human sEH (HsEH) (Table 1).
Turning to `CC(C)[C@@H]1CC[C@@H](C)C[C@H]1OC(=O)NC1CCCCC1` [compound 225], the IC50 in assay [1] (Table 1) came out at 840 ± 100 nM; at Human sEH (HsEH) (Table 1), 1050 ± 30 nM.
On to `O=C(NCCCc1ccccc1)Nc1ccccc1` [compound 430], for which the IC50 in assay [1] (Table 1) came to 210 ± 20 nM; at Human sEH (HsEH) (Table 1) it was 550 ± 30 nM.
Turning to `[O-][S+](c1ccccc1)C1OC1c1ccc(-c2ccccc2)cc1` (racemic) [R=4-C6H5—C6H4, R′=C6H5, X—Y=S═O, ±], the values for the IC50 (in assay [1] (Table 2); on Human sEH (HsEH) (Table 2)) were 73000 ± 5000 nM and 70000 ± 3000 nM, respectively.
As to `CCCCCCCCCCCCNC(=O)NC1CCC1` [compound 504], the IC50 in assay [1] (Table 1) was found to be 800 ± 100 nM; on Human sEH (HsEH) (Table 1), 23000 ± 4000 nM.
On to `O=C(NCCC1=CCCCC1)NCc1ccccc1` [compound 471], for which the half-maximal inhibitory concentration (IC50) in assay [1] (Table 1) came to 250 ± 30 nM; at Human sEH (HsEH) (Table 1) it was 2200 ± 100 nM.
In the case of `CC(C)CNC(=O)NC1CCCCC1` [compound 103], the half-maximal inhibitory concentration (IC50) in assay [1] (Table 1) worked out at 120 ± 10 nM; at Human sEH (HsEH) (Table 1), 2200 ± 100 nM.
For the compound `O=C(Nc1ccc(Br)cc1)NC1CCCCC1` [compound 65], the values for the half-maximal inhibitory concentration (IC50) (in assay [1] (Table 1); at Human sEH (HsEH) (Table 1)) were 170 ± 10 nM and 110 ± 10 nM, respectively.
Consider `CCCCCCCCCCNC(=O)NC1CCCCC1` [compound 153], for which the IC50 in assay [1] (Table 1) was 60 ± 10 nM; at Human sEH (HsEH) (Table 1), 100 ± 10 nM.
As to `O=C(NCCCCc1ccccc1)NC1CCCCC1` [compound 105], the IC50 in assay [1] (Table 1) was 50 ± 10 nM; at Human sEH (HsEH) (Table 1), 580 ± 30 nM.
In the case of `O=C(NCC1CCCCC1)Nc1ccccc1` [compound 176], the IC50 in assay [1] (Table 1) was found to be 60 ± 10 nM; at Human sEH (HsEH) (Table 1), 530 ± 30 nM.
For the compound `CCCCCCCCCCCCNC(=O)NCC(C)C` [compound 478], the results for the IC50 (in assay [1] (Table 1); on Human sEH (HsEH) (Table 1)) were 50 ± 10 nM and 260 ± 20 nM, respectively.
For the compound `CCCCCCCCNC(=O)NCCCCC` [compound 125], the figures for the half-maximal inhibitory concentration (IC50) (in assay [1] (Table 1); on Human sEH (HsEH) (Table 1)) were 90 ± 10 nM and 720 ± 20 nM, respectively.
For `C=C(C)CCOC(=O)NC1CCCCC1` [compound 277] the same measures were 120 ± 10 nM and 220 ± 20 nM.
